Structures are written as SMILES.

The data set can be described thus: physchem. The note with it: bicarbonate buffer.
`S=C1Sc2cc(Br)ccc2C2=NCCCN12` returned a fraction remaining at 24 h, 5000 µM greater than 95%. Compound `Cc1cccc2c1C1=NCCN1C(=S)S2` came in with an amount remaining at 24 h, 5000 µM greater than 95%. As for `Fc1ccc2c(c1)C1=NCCN1C(=S)S2`, the amount remaining at 24 h, 5000 µM is greater than 95%. Regarding `N=C1Sc2ccccc2C2=NCCCN12`, the share remaining at 24 h, 5000 µM is less than 5%.

The values are drawn from ChEMBL document CHEMBL4406872, “Synthesis and structure activity relationship of 1, 3-benzo-thiazine-2-thiones as selective HDAC8 inhibitors” (Eur J Med Chem, 2019).
